Results reported in US10889553B2, “Asymmetric triazole benzamide derivatives and the compositions and methods of treatment regarding the same” (NysnoBio Ireland DAC, priority 2017, dated 2021).

Experiments:
[1] = target: CDK2/Cyclin A (Homo sapiens, UniProt P24941); test: Kinase panel assay; format: biochemical
From the text: (§1) Compound 42 was also screened in a kinase panel assay.

[2] = target: CDK4/CyclinD3 (Homo sapiens, UniProt P11802); test: Kinase panel assay; format: biochemical
From the text: as §1

[3] = target: EGFR (ErbB1) (Homo sapiens, UniProt P00533); test: Kinase panel assay; format: biochemical
From the text: as §1

[4] = target: CYP2C19 (Homo sapiens, UniProt P33261); test: CYP inhibition assay; format: in vitro ADME; conditions: read-out: % Inhibition at 30 μM CYP 2C19
[5] = target: D1 (h) (Homo sapiens, UniProt P21728); test: Selectivity screen, radioligand displacement; format: binding
From the text: (§2) If the % inhibition is less than 50%, the test compounds is consider to have no effect.

[6] = target: D2S (h) (Homo sapiens, UniProt P14416); test: Selectivity screen, radioligand displacement; format: binding; conditions: read-out: % Inhib D2S (h)
From the text: as §2

[7] = target: dopamine transporter (h) (Homo sapiens, UniProt Q01959); test: Selectivity screen, radioligand displacement; format: binding; conditions: read-out: % Inhib dopamine transporter (h)
From the text: as §2

[8] = target: H1 (h) (Homo sapiens, UniProt P35367); test: Selectivity screen, radioligand displacement; format: binding
From the text: as §2

[9] = tested on: NA+ Channel (Site2); test: Selectivity screen, radioligand displacement; format: binding; conditions: Compound 42 at 10 μM
From the text: as §2

[10] = target: alpha 1A (h) (Homo sapiens, UniProt P35348); test: Selectivity screen, radioligand displacement; format: binding; conditions: read-out: % Inhib alpha 1A (h)
From the text: as §2

[11] = target: M3 (h) (Homo sapiens, UniProt P20309); test: Selectivity screen, radioligand displacement; format: binding; conditions: read-out: % Inhib M3 (h)
From the text: as §2

[12] = target: N neuronal alpha 4beta 2 (h) (Homo sapiens, UniProt P17787+P43681); test: Selectivity screen, radioligand displacement; format: binding; conditions: read-out: % Inhib N neuronal alpha 4beta 2 (h)
From the text: as §2

[13] = target: PDE4D2 (h) (Homo sapiens, UniProt Q08499); test: Selectivity screen, radioligand displacement; format: binding; conditions: read-out: % Inhib PDE4D2 (h)
From the text: as §2

[14] = target: mu (MOP) (h) (Homo sapiens, UniProt P35372); test: Selectivity screen, radioligand displacement; format: binding; conditions: read-out: % Inhib mu (MOP) (h)
From the text: as §2

[15] = tested on: NMDA; test: Selectivity screen, radioligand displacement; format: binding; conditions: Compound 42 at 10 μM
From the text: as §2

[16] = target: 5-HT1A (h) (Homo sapiens, UniProt P08908); test: Selectivity screen, radioligand displacement; format: binding; conditions: read-out: % Inhib 5-HT1A (h)
From the text: as §2

[17] = target: hERG potassium channel (Homo sapiens, UniProt Q12809); test: Selectivity screen, radioligand displacement; format: binding; conditions: read-out: % Inhib Potassium Channel hERG (human)
From the text: as §2

[18] = target: 5-HT2B (h) (Homo sapiens, UniProt P41595); test: Selectivity screen, radioligand displacement; format: binding; conditions: read-out: % Inhib 5-HT2B (h)
From the text: as §2

[19] = target: V1a (h) (Homo sapiens, UniProt P37288); test: Selectivity screen, radioligand displacement; format: binding; conditions: read-out: % Inhib V1a (h)
From the text: as §2

[20] = target: beta 2(h) (Homo sapiens, UniProt P07550); test: Selectivity screen, radioligand displacement; format: binding; conditions: read-out: % Inhib beta 2(h)
From the text: as §2

[21] = target: A2A(h) (Homo sapiens, UniProt P29274); test: Selectivity screen, radioligand displacement; format: binding; conditions: read-out: % Inhib A2A(h)
From the text: as §2

[22] = target: acetylcholinesterase (h) (Homo sapiens, UniProt P22303); test: Selectivity screen, radioligand displacement; format: binding; conditions: read-out: % Inhib acetylcholinesterase (h)
From the text: as §2

[23] = target: ETA (h) (Homo sapiens, UniProt P25101); test: Selectivity screen, radioligand displacement; format: binding; conditions: read-out: % Inhib ETA (h)
From the text: as §2

[24] = target: COX2(h) (Homo sapiens, UniProt P35354); test: Selectivity screen, radioligand displacement; format: binding; conditions: read-out: % Inhib COX2(h)
From the text: as §2

[25] = target: kappa (KOP) (Rattus norvegicus, UniProt P34975); test: Selectivity screen, radioligand displacement; format: binding; conditions: read-out: % Inhib kappa (KOP)
From the text: as §2

[26] = target: PDE3A (h) (Homo sapiens, UniProt Q14432); test: Selectivity screen, radioligand displacement; format: binding; conditions: read-out: % Inhib PDE3A (h)
From the text: as §2

[27] = target: CB1 (h) (Homo sapiens, UniProt P21554); test: Selectivity screen, radioligand displacement; format: binding; conditions: read-out: % Inhib CB1 (h)
From the text: as §2

[28] = target: M2 (h) (Homo sapiens, UniProt P08172); test: Selectivity screen, radioligand displacement; format: binding; conditions: read-out: % Inhib M2 (h)
From the text: as §2

[29] = target: 5-HT1B (Rattus norvegicus, UniProt P28564); test: Selectivity screen, radioligand displacement; format: binding; conditions: read-out: % Inhib 5-HT1B
From the text: as §2

[30] = tested on: Ca2+ channel (L, dihydropyridine); test: Selectivity screen, radioligand displacement; format: binding; conditions: Compound 42 at 10 μM
From the text: as §2

[31] = target: Lck kinase (h) (Homo sapiens, UniProt P06239); test: Selectivity screen, radioligand displacement; format: binding; conditions: read-out: % Inhib Lck kinase (h)
From the text: as §2

[32] = target: H2 (h) (Homo sapiens, UniProt P25021); test: Selectivity screen, radioligand displacement; format: binding; conditions: read-out: % Inhib H2 (h)
From the text: as §2

[33] = target: alpha 2A (h) (Homo sapiens, UniProt P08913); test: Selectivity screen, radioligand displacement; format: binding; conditions: read-out: % Inhib alpha 2A (h)
From the text: as §2

[34] = target: 5-HT3 (h) (Homo sapiens, UniProt P46098); test: Selectivity screen, radioligand displacement; format: binding; conditions: read-out: % Inhib 5-HT3 (h)
From the text: as §2

[35] = target: 5-HT transporter (h) (Homo sapiens, UniProt P31645); test: Selectivity screen, radioligand displacement; format: binding; conditions: read-out: % Inhib 5-HT transporter (h)
From the text: as §2

[36] = tested on: CDK 4/6 or other kinases; test: Kinase panel assay (whole panel); format: biochemical; conditions: 10 μM, in words
From the text: as §1

5-HT1B, sequence (P28564 whole entry): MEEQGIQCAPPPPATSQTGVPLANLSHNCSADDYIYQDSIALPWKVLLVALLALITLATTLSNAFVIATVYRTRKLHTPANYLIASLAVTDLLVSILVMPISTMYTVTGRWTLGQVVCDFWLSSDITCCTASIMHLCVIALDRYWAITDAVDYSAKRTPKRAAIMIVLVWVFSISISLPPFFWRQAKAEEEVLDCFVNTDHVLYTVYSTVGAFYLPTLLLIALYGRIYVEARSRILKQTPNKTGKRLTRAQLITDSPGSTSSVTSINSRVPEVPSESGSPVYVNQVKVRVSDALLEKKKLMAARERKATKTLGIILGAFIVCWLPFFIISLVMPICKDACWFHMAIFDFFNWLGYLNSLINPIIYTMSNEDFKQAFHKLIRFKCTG
5-HT2B (h), sequence (P41595 whole entry): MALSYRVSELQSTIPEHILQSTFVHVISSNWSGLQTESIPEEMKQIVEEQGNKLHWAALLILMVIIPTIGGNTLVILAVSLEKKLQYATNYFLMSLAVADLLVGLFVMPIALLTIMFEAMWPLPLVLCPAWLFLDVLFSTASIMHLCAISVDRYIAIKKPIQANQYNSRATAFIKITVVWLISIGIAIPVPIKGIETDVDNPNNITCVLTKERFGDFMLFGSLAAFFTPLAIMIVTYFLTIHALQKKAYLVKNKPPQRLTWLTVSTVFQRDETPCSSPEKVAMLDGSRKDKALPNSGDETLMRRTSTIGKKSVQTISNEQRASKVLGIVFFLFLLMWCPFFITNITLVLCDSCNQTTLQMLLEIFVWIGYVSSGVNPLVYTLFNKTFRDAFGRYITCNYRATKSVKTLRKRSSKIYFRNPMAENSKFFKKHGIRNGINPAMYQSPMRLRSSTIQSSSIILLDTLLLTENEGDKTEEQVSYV
alpha 1A (h), sequence (P35348 whole entry): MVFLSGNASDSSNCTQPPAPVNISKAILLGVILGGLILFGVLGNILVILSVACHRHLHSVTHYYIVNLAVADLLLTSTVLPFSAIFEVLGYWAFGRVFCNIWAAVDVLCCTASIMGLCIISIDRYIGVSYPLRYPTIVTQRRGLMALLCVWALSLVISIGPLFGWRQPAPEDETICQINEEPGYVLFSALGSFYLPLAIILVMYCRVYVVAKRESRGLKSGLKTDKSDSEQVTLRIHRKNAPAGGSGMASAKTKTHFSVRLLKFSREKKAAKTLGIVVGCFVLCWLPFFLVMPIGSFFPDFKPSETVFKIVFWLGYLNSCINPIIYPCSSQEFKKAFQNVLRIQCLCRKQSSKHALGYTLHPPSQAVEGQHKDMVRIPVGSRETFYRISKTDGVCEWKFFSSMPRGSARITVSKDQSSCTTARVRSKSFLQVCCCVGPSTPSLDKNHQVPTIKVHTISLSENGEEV
EGFR (ErbB1), sequence (P00533 25-1210, species assumed): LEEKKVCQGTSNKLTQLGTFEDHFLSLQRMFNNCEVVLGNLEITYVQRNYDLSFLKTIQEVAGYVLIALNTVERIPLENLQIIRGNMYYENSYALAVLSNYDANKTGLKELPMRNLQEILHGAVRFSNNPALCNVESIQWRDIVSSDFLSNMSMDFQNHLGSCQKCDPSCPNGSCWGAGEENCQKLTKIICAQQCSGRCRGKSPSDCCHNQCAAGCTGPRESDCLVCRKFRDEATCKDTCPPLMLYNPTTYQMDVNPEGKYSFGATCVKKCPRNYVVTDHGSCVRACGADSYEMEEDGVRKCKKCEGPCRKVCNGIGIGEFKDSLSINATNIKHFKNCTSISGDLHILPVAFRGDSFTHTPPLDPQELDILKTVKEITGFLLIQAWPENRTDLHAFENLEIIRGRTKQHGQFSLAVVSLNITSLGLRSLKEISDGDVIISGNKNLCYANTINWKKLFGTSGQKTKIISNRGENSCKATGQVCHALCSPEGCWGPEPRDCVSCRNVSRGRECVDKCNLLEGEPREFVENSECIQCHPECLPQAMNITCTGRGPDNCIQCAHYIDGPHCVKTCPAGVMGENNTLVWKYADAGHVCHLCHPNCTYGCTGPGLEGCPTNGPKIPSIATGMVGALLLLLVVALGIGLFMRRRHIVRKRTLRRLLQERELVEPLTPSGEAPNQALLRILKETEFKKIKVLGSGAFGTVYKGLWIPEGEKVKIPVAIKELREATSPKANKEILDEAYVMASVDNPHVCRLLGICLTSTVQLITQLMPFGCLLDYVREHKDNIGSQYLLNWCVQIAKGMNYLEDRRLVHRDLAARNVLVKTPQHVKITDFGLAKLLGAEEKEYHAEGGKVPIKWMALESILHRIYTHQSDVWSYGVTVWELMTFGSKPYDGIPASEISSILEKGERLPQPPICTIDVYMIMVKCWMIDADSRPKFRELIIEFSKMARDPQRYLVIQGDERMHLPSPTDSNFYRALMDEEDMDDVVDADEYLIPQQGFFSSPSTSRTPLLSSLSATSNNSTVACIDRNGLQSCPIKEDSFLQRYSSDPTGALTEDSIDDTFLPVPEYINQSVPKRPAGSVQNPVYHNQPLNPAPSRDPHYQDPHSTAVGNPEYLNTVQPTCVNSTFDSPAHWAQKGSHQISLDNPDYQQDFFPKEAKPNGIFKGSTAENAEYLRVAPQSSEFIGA
ETA (h), sequence (P25101 21-427): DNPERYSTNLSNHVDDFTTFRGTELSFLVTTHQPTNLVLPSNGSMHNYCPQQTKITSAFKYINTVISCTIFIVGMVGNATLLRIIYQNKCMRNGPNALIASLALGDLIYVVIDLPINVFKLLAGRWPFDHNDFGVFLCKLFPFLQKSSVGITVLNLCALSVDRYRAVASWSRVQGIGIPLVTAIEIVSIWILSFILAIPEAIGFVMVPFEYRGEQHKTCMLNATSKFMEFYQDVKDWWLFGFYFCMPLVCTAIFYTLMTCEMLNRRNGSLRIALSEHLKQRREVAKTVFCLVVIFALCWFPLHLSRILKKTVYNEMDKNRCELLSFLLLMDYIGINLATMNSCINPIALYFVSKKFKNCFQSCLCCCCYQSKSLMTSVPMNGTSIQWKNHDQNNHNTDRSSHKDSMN
hERG potassium channel, sequence (Q12809 whole entry): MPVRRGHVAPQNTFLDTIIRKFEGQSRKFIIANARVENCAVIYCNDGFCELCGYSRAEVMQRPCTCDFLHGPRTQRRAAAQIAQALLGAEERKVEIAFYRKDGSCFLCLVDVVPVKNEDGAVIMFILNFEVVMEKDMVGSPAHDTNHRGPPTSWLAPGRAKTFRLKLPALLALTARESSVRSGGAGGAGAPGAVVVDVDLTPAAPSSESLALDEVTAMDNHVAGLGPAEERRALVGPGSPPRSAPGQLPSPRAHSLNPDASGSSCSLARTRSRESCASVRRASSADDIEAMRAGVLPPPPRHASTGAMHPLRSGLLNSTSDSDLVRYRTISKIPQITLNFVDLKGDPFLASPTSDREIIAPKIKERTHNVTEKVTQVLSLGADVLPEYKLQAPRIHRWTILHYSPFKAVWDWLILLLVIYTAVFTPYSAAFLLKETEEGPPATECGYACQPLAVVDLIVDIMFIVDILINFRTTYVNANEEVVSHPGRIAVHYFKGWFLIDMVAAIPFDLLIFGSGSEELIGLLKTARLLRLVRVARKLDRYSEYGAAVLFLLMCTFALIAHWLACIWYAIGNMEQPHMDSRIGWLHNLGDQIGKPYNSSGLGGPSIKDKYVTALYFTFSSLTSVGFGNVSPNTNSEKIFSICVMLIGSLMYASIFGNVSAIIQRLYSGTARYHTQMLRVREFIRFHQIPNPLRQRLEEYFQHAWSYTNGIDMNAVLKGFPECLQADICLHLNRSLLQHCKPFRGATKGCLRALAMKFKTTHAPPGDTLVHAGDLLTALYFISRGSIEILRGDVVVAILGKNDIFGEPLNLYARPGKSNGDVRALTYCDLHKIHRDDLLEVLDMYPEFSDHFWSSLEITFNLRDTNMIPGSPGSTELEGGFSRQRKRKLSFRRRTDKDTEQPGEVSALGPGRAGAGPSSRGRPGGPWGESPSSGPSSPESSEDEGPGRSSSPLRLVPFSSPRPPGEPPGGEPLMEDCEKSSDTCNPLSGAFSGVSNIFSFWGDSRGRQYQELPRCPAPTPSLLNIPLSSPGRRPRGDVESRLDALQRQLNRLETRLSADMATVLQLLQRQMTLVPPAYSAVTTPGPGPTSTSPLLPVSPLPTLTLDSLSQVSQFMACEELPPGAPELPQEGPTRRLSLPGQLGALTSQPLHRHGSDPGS
acetylcholinesterase (h), sequence (P22303 32-614): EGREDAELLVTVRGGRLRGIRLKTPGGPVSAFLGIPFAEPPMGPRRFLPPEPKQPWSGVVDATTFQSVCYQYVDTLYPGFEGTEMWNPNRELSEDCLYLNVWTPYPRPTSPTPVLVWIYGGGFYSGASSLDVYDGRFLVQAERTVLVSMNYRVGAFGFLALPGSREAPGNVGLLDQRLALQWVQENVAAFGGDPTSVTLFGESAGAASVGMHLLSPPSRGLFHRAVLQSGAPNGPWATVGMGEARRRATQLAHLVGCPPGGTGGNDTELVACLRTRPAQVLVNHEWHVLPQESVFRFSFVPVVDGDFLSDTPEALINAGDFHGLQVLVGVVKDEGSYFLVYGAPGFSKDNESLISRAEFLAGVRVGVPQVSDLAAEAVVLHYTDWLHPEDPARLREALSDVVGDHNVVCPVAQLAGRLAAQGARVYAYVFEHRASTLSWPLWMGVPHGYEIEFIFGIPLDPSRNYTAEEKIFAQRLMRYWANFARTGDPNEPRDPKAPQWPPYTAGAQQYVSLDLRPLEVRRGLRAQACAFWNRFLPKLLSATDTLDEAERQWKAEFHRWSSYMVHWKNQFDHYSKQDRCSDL
H2 (h), sequence (P25021 whole entry): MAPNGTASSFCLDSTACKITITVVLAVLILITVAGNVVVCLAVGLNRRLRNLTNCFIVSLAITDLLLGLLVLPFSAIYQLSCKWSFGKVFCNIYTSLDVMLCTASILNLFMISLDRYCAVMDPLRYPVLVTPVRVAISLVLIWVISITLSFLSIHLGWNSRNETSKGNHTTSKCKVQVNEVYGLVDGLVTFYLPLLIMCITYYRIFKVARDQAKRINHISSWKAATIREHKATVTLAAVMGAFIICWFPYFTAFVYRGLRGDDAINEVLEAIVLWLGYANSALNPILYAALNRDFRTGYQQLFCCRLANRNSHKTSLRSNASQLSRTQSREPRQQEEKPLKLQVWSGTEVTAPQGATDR

Cc1ccccc1C(=O)Nc1nc(NC(=O)c2ccccc2C)n(-c2ccc(OC(F)(F)F)cc2)n1 [Compound 42, N,N′-(1-(4-(trifluoromethoxy)phenyl)-1H-1,2,4-triazole-3,5-diyl)bis(2-methylbenzamide)] showed an inhibition at 10 µM [1] of 4%, an inhibition at 10 µM [2] of 3% and an inhibition at 10 µM [3] of 8%. For the same compound, the inhibition at 30 μM [4] was 60.5%, the inhibition at 10 µM [5] was under 1% and the inhibition at 10 µM [6] was under 1%. The inhibition at 10 µM [7] was 13%, the inhibition at 10 µM [8] was under 1% and the “% Inhib NA+ Channel (Site2)” value [9] was 43%. It also gave an inhibition at 10 µM [10] of 16%, an inhibition at 10 µM [11] of under 1% and an inhibition at 10 µM [12] of under 1%. The inhibition at 10 µM [13] was 35%, the inhibition at 10 µM [14] was 6% and the “% Inhib NMDA” value [15] was 8%. For the same compound, the inhibition at 10 µM [16] was 10%, the inhibition at 10 µM [17] was 1% and the inhibition at 10 µM [18] was under 1%. It also gave an inhibition at 10 µM [19] of 5%, an inhibition at 10 µM [20] of 9% and an inhibition at 10 µM [21] of 7%. For the same compound, the inhibition at 10 µM [22] was 1%, the inhibition at 10 µM [23] was under 1% and the inhibition at 10 µM [24] was 1%. For the same compound, the inhibition at 10 µM [25] was 3%, the inhibition at 10 µM [26] was 13% and the inhibition at 10 µM [27] was under 1%. The inhibition at 10 µM [28] was under 1%, the inhibition at 10 µM [29] was 1% and the “% Inhib Ca2+ channel (L, dihydropyridine)” value [30] was 45%. It also gave an inhibition at 10 µM [31] of 8%, an inhibition at 10 µM [32] of under 1% and an inhibition at 10 µM [33] of under 1%. For the same compound, the inhibition at 10 µM [34] was under 1%, the inhibition at 10 µM [35] was 10% and the “inhibition of CDK 4/6 or other kinases” value [36] was “does not inhibit”.
